Earlier results, collected in US4996197A, “Pharmaceutical and/or cosmetic composition for local use containing Rhamsan gum” (Laboratoires Merck Sharp & Dohme-Chibret, priority 1987, dated 1991).

Conditions: with polyvinyl alcohol; Maichuk, Am. J. Ophthal, 74: 694, 1972

Row | Compound | pharmacological response to medicinal products
1 | Nc1ccc(S(=O)(=O)[N-]c2cccnn2)cc1.[Na+] [sulphapyridazine sodium] | enhances the pharmacological response
2 | erythrocin propionate | enhances the pharmacological response
